In test [1] the test system is sera from SFV-infected WT and γδ KO mice. The test is described as follows: ELISA of sera from SFV-infected WT and γδ KO mice against SFV, E2 peptides, PPD and rMOG. Type of test: binding.
Test [2] relates to SFV-infected WT and γδ KO mice. The test is described as follows: E2 137-151 peptide immunization during SFV disease: serum antibody response (ELISA). Type of test: in vivo. The source says: Optical densities (OD) (3A) and ratios (3B) of Non-immunized/Immunized, WT and KO, of ELISA responses to SFV and to E2 peptide, 137-151 is shown. Samples were collected on days 15, 21, 28 and 35 after intraperitoneal infection of B6 mice with SFV and immunization with E2 137-151. The dilutions for sera were 1:80, Amount of antibody is shown as mean optical density (OD) of sera from three experiments±standard error of the mean (SEM). The background OD is subtracted from each time point.
(§1) To measure the antibody response of both WT and γδ KO mice against SFV and two of the peptides of the SFV envelope protein, E2, an indirect ELISA was performed. Sera were pooled from 4-6 SFV-infected WT, and 3 KO, mice on days 0, 7, 14, 21 and 35 pi. Briefly, Immunolon 2HB 96 well microtiter plates (VWR, Bridge Port, N.J.) were coated with 1 μg/well of each antigen in 100 μl/well carbonate buffer overnight at room temperature. After washing, the plates were blocked and serum samples were added. […] After washing, biotinylated goat anti-mouse Igs (BD Pharmingen, Torreyana, Calif.), Strepavidin conjugated to Horse Radish Peroxidase (Vector Laboratories, Burlingame, Calif.), and OPD substrate (Sigma, St. Louis, Mo.) were used, as previously described (4, 9). […] Values were considered to be positive when they were >0.3 OD units and exceeded the mean value plus three standard deviations for antibody response on day 0 pi of mice of the same strain.
WT and KO mice were immunized subcutaneously with E2 137-151 (0.5 mg/injection or 25 mg/kg, based on the average weight of 20 g/mouse) in IFA on the day of SFV-infection. Additional injections of E2 137/IFA were performed on days 5 and 15 for WT and KO mice. Mice are sacrificed on days 15, 21, 35 and 42 pi and sera were tested by ELISA for reactivity with SFV and its peptides. […] This immunization, however, appeared to have suppressed the formation of anti-E2 137-151 antibody in SFV-infected, E2 137-151-immunized WT mice.
On the technique in general: An ELISA detects its analyte on a solid surface through an enzyme-linked reagent.

Test [3] deals with sera from SFV-infected B6 mice. Type of test: binding. Here is the method:
as §1, with “strain. […]” for “strain.”
In some instances day 0 OD values were high, thus making the differences appear small. Therefore, to account for such discrepancy, we also determined the ratio of the highest day (day 15 or 21) over day 0.

For `CC[C@H](C)[C@H](NC(=O)[C@H](CCC(=O)O)NC(=O)[C@H](CCCCN)NC(=O)CNC(=O)[C@H](Cc1ccc(O)cc1)NC(=O)[C@H](Cc1c[nH]cn1)NC(=O)[C@@H]1CCCN1C(=O)[C@H](CCCNC(=N)N)NC(=O)[C@@H](NC(=O)[C@@H](NC(=O)[C@H](Cc1ccccc1)NC(=O)[C@H](CCCCN)NC(=O)[C@H](CCC(=O)O)NC(=O)[C@H](CCCNC(=N)N)NC(=O)CN)[C@@H](C)O)[C@@H](C)CC)C(=O)O` [E2 137-151], the “Net change in the level of antibody, D0 WT” value in test [1] (WT mice, day 0) came out at 0 nano gr. Further, the “Net change in the level of antibody, D7 WT” value in test [1] (WT mice, day 7 pi, ± SD) turned out to be 72 ± 28 nano gr. For the same compound, the “Net change in the level of antibody, D14 WT” value in test [1] (WT mice, day 14 pi, ± SD) worked out at 565 ± 33 nano gr. The “Net change in the level of antibody, D21 WT” value in test [1] (WT mice, day 21 pi, ± SD) is listed as 1196 ± 61 nano gr. For the same compound, in test [1] (WT mice, day 35 pi, ± SD), the “Net change in the level of antibody, D35 WT” value turned out to be 951 ± 50 nano gr. Also, the “Reactivity of sera from SFV-infected WT mice” value in test [1] (WT, sera 1:80, day 7 pi increasing to day 35) is recorded as “reacted strongly”. Besides, in test [1] (γδ KO mice, day 0), the “Net change in the level of antibody, D0 KO” value was found to be 0 nano gr. Besides, the “Net change in the level of antibody, D7 KO” value in test [1] (γδ KO mice, day 7 pi, ± SD) is reported as 39 ± 25 nano gr. The “Net change in the level of antibody, D14 KO” value in test [1] (γδ KO mice, day 14 pi, ± SD) is on record as 36 ± 19 nano gr. Further, the “Net change in the level of antibody, D21 KO” value in test [1] (γδ KO mice, day 21 pi, ± SD) is given as 46.5 ± 19 nano gr. In test [1] (γδ KO mice, day 35 pi, ± SD), the “Net change in the level of antibody, D35 KO” value is 41 ± 28 nano gr. Besides, in test [1] (γδ KO, sera 1:80), the “Reactivity of sera from SFV-infected γδ KO mice” value is reported as “marginally reacted”. Further, the “Formation of anti-E2 137-151 antibody in SFV-infected, immunized WT mice” value in test [2] (0.5 mg/injection sc in IFA, WT mice) is given as “suppressed”. For the same compound, the “Ratio of antibody production to SFV, immunized versus non-immunized” value in test [2] (KO and WT mice) is recorded as “did not increase”. The “Antibody to E2 137-151 peptide after immunization” value in test [2] (SFV-infected KO mice) is recorded as “increased the antibody to this peptide only”. In addition, the “Ratio of KO/WT anti E2 137-151 antibody production” value in test [2] (immunized versus non-immunized) is “significantly increased”. For the same compound, the “Dh / D0 (Ratio)” value in test [3] (OD of highest day (day 15 or 21) over day 0, SFV-infected sera) is listed as 3.96. The “Dh−D0 (difference)” value in test [3] (OD of highest day minus day 0, SFV-infected sera) is given as 0.406. Also, the “Net change in the levels of antibody (ΔOD), D7-9” value in test [3] (SFV-infected mice sera, days 7-9 pi, day 0 OD subtracted) is 0.84 ± 0.39 ΔOD. Also, the “Net change in the levels of antibody (ΔOD), D14-16” value in test [3] (SFV-infected mice sera, days 14-16 pi, day 0 OD subtracted) was 1.83 ± 0.47 ΔOD. For the same compound, the “Net change in the levels of antibody (ΔOD), D21-23” value in test [3] (SFV-infected mice sera, days 21-23 pi, day 0 OD subtracted) is listed as 2.19 ± 0.76 ΔOD. For the same compound, the “Net change in the levels of antibody (ΔOD), D31-35” value in test [3] (SFV-infected mice sera, days 31-35 pi, day 0 OD subtracted) was 2.08 ± 0.67 ΔOD. For the same compound, the “Reactivity of sera from SFV-infected B6 mice with the antigen in ELISA” value in test [3] (vs day 0) was “reacted”.

The values above are taken from patent US20090311246A1, “Method of Enhancing Remyelination in Demyelinating Diseases of the Central Nervous System” (priority 2008, published 2009).
